# Assays:
# Format in all cases: cell-based, human
# CD3+ CD4+ Sezary cells = experiment: Hoechst 33342 apoptosis assay, Sezary cells; conditions: 10 μM rolipram or 1 μM hydrocortisone; one patient
# Procedure: (§1) Magnetic bead purified peripheral blood T cells or leukemic cells from patients with B-CLL or Sezary syndrome were cultured in media alone or with a dose titration of hydrocortisone (solid line), followed by assessment for apoptosis by Hoechst 33342 FACS analysis at 48 hours. Using the same experimental conditions, the effect of addition of 10 μM rolipram (thick dashed line) or 10 μM rolipram and 40 μM forskolin (dotted line) was also assessed. The SEM of triplicate samples is shown; where not visible, the SEM was less than 1.0%.
# (§2) CCRF-CEM cells were obtained from ATCC^27. Leukemic or normal mononuclear cells were obtained by centrifugation over Histopaque 1077 (Sigma Chemical Company, St. Louis, Mo.). For purification of T cells, whole mononuclear cells from normal subjects were incubated with magnetic beads coated with appropriate antibodies, then positively purified using a magnet (Miltenyi). […]
# (§3) Hoechst 33342 and DiOC6(3) apoptosis assays were performed as previously described^22,28. […] The absorbance (O.D.) of the formazan product was determined at 492 nm using a plate reader (Titertek Multiscan Plus, Labsystems). Percent cell viability was calculated as follows: (O.D. control sample−O.D. blank)/(O.D. test sample−O.D. blank)×100. […]
# [1] = test system: GRE luciferase constructs transiently transfected into B-CLL cells; experiment: GRE luciferase transactivation in B-CLL cells
# Procedure: B-CLL cells (FIG. 3A) or CCRF-CEM cells (FIG. 3B) were transiently transfected with a luciferase construct in which expression is regulated by GRE elements, followed by culture in 10 μM rolipram (R), 40 μM forskolin (Fsk), 1 μM hydrocortisone (HC), 1 mM Rp-8Br-cAMPS (Rp-8Br) or combinations of these agents. 12 hours after addition of the drugs, the relative luminescence of the samples was determined. The data shown are the mean of 8 experiments for B-CLL and two experiments for CCRF-CEM cells. The single asterisk denote a significant difference by paired student's t test between HC alone and either R/HC (FIG. 3A) or F/HC (FIG. 3B) (p<0.02). The double asterisk denotes a significant difference between Rp-8Br-cAMPS/HC and HC alone (p<0.02).
# An MMTV GRE luciferase construct, originally created by Dr. R. Evans, was a gift from Dr. Remco Spanjaard (Dept. of Otolaryngology, Boston Medical Center)^29. 100 million B CLL cells in 200 μl of PBS were added to 500 μl of Nucleofector Solution D containing 30 μg of endotoxin-free (Qiagen) MMTV luciferase constructs. 100 μl was used per transfection using a Nucleofector electroporation instrument (Amaxa Biosystems, Koeln, Germany) using program U16. […] Up to six such aliquots of transfected cells were diluted in media and pooled, prior to distribution of 8 million cells/well in 48 well plates. Two hours after transfection, drugs, cytokines or vehicle alone were added to the transfected cells. 14 hours after transfection, samples were processed using a luciferase assay kit (Promega). Triplicate samples were analyzed with an MGM Instruments Optocomp I luminometer (Hamden, Conn.). Analysis of cell viability (trypan blue exclusion) and total protein (Pierce) verified that equivalent numbers of viable B-CLL cells were analyzed. 100 million CCRF-CEM cells were similarly transfected, cultured and analyzed except that Nucleofector program O17 was utilized. […] Data were analyzed using a two-sided paired t test for means.
# [2] = test system: cAMP levels in CCRF-CEM cells; experiment: cAMP RIA, CCRF-CEM cells; conditions: 30 minutes, 10 μM rolipram, 10 μM forskolin, 1 μM hydrocortisone, three experiments
# Procedure: Leukemic cells from six B-CLL patients or CCRF-CEM cells were incubated for 30 minutes with media alone (CT), 10 μM rolipram (Roli), 10 μM forskolin (Fsk), 1 μM hydrocortisone (HC), or the same concentration of hydrocortisone combined with rolipram (Roli/HC) or forskolin (Fsk/HC). Lysates of the cells were then assayed for cAMP using a RIA. The cAMP level obtained from each treated B-CLL sample was normalized to that observed in the untreated leukemic cells. The CCRF-CEM data shown are representative of three experiments performed.
# 500,000 B-CLL or CCRF-CEM cells were incubated for 30 minutes in one mL media alone or with the addition of drugs. Cells were centrifuged and lysed in 80% ethanol. After vortexing and incubation on ice for 10 minutes, cellular debris was removed by re-centrifugation. The supernatant was dried in a Speedivac and the sample brought up in 250 μL of sample buffer as provided by the makers of a cAMP RIA kit (Amersham). 100 μL of this sample was used for each cAMP assay. The RIA kit was used according to the manufacturer's instructions.
# peripheral blood T cells = experiment: Hoechst 33342 apoptosis assay, peripheral blood T cells; conditions: 10 μM rolipram
# Procedure: as §1, §2, §3
compound,measurement,setting,value
"COc1ccc(C2CNC(=O)C2)cc1OC1CCCC1 (stereo not drawn) [rolipram, 4-(3-cyclopentyloxy-4-methoxyphenyl)-2-pyrrolidone]",apoptotic effect used separately on Sezary leukemic cells,CD3+ CD4+ Sezary cells,little effect
same,augmentation of hydrocortisone-induced transactivation (average),"[1]; 10 μM rolipram + 1 μM hydrocortisone, 5 patients, p<0.02",33%
same,augmentation of GRE transactivation by rolipram itself,"[1]; 10 μM rolipram alone, 7/8 experiments, not statistically significant (p<0.23)",10%
same,effect on cAMP levels,[2],no effect
same,augmentation of the apoptotic effect of 1 μM hydrocortisone on T cells,peripheral blood T cells,failed to augment
same,induction of apoptosis in peripheral blood T cells,peripheral blood T cells,failed to induce apoptosis

# Reference: patent US20080051379A1, “Compositions and Methods for the Treatment of Peripheral B-Cell Neoplasms” (Trustees of Boston University, priority 2004, published 2008)
